Measured values as given in patent US6897238B2, “Topical aminolevulinic acid-photodynamic therapy for the treatment of acne vulgaris” (General Hospital Corporation, priority 2000, dated 2005).

Columns and labels:
acne vulgaris [1] = test: Global clinical-improvement grading by blinded dermatologists from photographs; assay type: in vivo, human
Experimental: (§1) Sites were marked withtemplates to precisely relocate each test area. […] Then, 20% topical ALA in a hydroalcoholic vehicle (Levulan, a gift from DUSA pharmaceutical) was applied for 3h under occlusion with plastic film (Saran wrap), and 150 J/cm^2 broad band light (550-700 nm) was given to the ALA-PDT and light alone areas. […] In both groups, subjects returned one week after treatments for clinical evaluations and at weeks 2, 3, 10 and 20 for clinical, fluorescence, and SER evaluations.
Clinical improvement was globally assessed by 3 dermatologists unaware of the status of treatment, who blindly graded changes in acne from fixed-magnification clinical photographs, after being shown a small set standardized series of training slides not used in the data evaluation. The grading scale was defined as −3 for >50% exacerbation, −2 for 25^+−50% exacerbation, −1 for 1^+−25% exacerbation, 0 if unchanged, 1 for 1^+−25% improvement, 2 for 25^+−50% improvement, 3 for 50^+−75% improvement, 4 for 75^+−99% improvement, and 5 for 100% improvement, as compared to the baseline.
(§2) Statistical significance was defined as p value of less than 0.05.

sebaceous glands [2] = test: Sebum excretion rate (SER) by Sebutape; settings: ALA plus red light
P. acnes = test: Fluorescence photography of follicular bacterial porphyrin (red fluorescent dots); assay type: in vivo, human
Experimental: as §1
A Nikon E2N digital camera body with a Nikon 105 mm macro lens was used. A filter (Corion LL-550S) was placed on the lens to block light below 550 nm. The excitation light source was composed of two synchronized photoflashes with Norman 400 watt-second lampheads (FT400/FT6), mounted on a stationary tower with angles of incidence of 60 degrees bilaterally. Two 400 nm bandpass filters with 5 nm bandwidth (Corion S40-400S) were placed on the flashes. By this method, the punctate orange-red fluorescence of hair follicles populated with P. acnes was seen. Fluorescence emission has been attributed to bacterial coproporphyrin III and protoporphyrin IX, and intensity of fluorescence is related to the P. acnes population. Fluorescence photography was performed at week, 0, 2, 3, 10 and 20 in all sites. The number of punctate red flourescent dots was counted blindly for each test area.
as §2

acne vulgaris [3] = test: Inflammatory acne score, open-label human study of topical ALA-PDT on the back
[4] = Adverse effects, clinical evaluation and subjective sensation; assay type: in vivo, human; settings: for Subjects with burning sensation / Subjects with itching: multiple ALA-PDT
Experimental: Adverse effects were scored by clinical evaluation of erythema, edema, loss of epidermis, hyperpigmentation, hemorrhage, vesiculation, and exfoliation on a visual-analogue scale from 0 to 3 (0=absent, 1=mild, 2=moderate, 3=severe) for each finding. Subjective sensation of pain, burning, and itching was generally maximum about 10 minutes into light exposure, and was ranked at that time and the end of treatment (1 hour), by subjects on a scale from 0 to 3 similar to above.

pilosebaceous units = test: ALA-induced PpIX fluorescence in skin (fluorescence microscopy / photography); assay type: in vivo, human
Experimental: Punch biopsy specimens (4 mm) were taken immediately after PDT, a few weeks after PDT, and at 20 weeks from both the untreated control and ALA-PDT areas. […] Histologic examination was performed. […] To determine the level of PpIX converted from ALA in the pilosebaceous units, punch biopsy specimens were also taken from ALA-treated areas after 3 h occlusion as described above.

sebaceous glands [5] = test: Histologic examination and planimetry of punch biopsies; settings: for Reduction of cytoplasm/nuclear cross-section area ratio in sebocyte relative to non-treatment: 3 weeks
[6] = multiple treatments, ALA plus red light
[7] = single treatment, ALA plus red light
[8] = multiple-treatment subjects, after 4 treatments
[9] = single-treatment subjects, at 20 weeks
[10] = multiple treatment group, 20 weeks after the last treatment
[11] = twenty weeks after a single ALA-PDT treatment

NCC(=O)CCC(=O)O [ALA, 5-aminolevulinic acid]
Global clinical-improvement score, multiple versus single treatment group (acne vulgaris [1]; ALA plus red light, first 2 follow-up visits (week 1 & 2)): significantly better improvement than the single ALA-PDT treatment group
Duration of obvious and significant improvement of acne, blinded clinical assessment (acne vulgaris [1]; after 4 treatments): at least 20 weeks
Duration of obvious and significant improvement of acne, blinded clinical assessment (acne vulgaris [1]; after a single ALA-PDT treatment): at least 10 weeks
Global clinical-improvement score versus baseline (acne vulgaris [1]; multiple treatments, ALA alone, visit 2 and visit 5): improvement reaching statistical significance
Global clinical-improvement score versus baseline (acne vulgaris [1]; [6]): Significant improvement
Global clinical-improvement score versus the other 3 sites (acne vulgaris [1]; [6]): significantly better improvement in the ALA-PDT treated site than the other 3 sites, at all follow-up visits
Global clinical-improvement score versus baseline (acne vulgaris [1]; [7]): significant global improvement starting week 3 and extending through week 20
Global clinical-improvement score, difference to the other three treatment sites (acne vulgaris [1]; [7]): statistically significant at weeks 3 and 10
Sebum excretion after PDT (summary) (sebaceous glands [2]): eliminated for several weeks, and decreased for 20 weeks
SER, multiple versus single treatment group (sebaceous glands [2]; difference significant only at 20 weeks, all visits combined p=0.001): suppressed SER more than single ALA-PDT
SER, difference to the other 3 areas (sebaceous glands [2]; multiple treatments): statistically significant at all 4 visits
Sebum excretion rate (SER) versus baseline (sebaceous glands [2]; multiple treatments): significant decrease in SER, at all follow-up visits
SER versus the other test sites (sebaceous glands [2]; single treatment): significantly lower than any other test sites, at each follow-up visit
Sebum excretion rate (SER) versus baseline (sebaceous glands [2]; single treatment, weeks 2, 3, 20): significant decrease of SER
Fluorescence related to P. acnes, multiple versus single treatment group (P. acnes; ALA plus red light, four times versus single): better, but not significant, improvement
Duration of significant decrease of fluorescence of endogenous porphyrins associated with P. acnes (P. acnes; after both single and multiple ALA-PDT): at least 20 weeks
Fluorescence related to P. acnes versus baseline (P. acnes; multiple treatments, ALA alone, week 10 and 20): significantly greater fluorescence than baseline
Fluorescence related to P. acnes versus baseline (P. acnes; [6]): significant loss of P. acnes, fluorescence, starting at follow-up visit 2
Fluorescence related to P. acnes, difference to the other 3 test sites (P. acnes; [6]): statistically significant for all visits
Fluorescence related to P. acnes versus baseline (P. acnes; [7]): significant loss of fluorescence related to P. acnes, which lasted for all 4 follow-up visits
Fluorescence related to P. acnes, difference to the other 3 test sites (P. acnes; [7]): statistically significant for all visits
Inflammatory acne score, multiple versus single treatment group, all follow-up visits combined (acne vulgaris [3]; ALA alone, P=0.007): better improvement than the single treatment group
Inflammatory acne score, multiple versus single treatment group (acne vulgaris [3]; ALA plus red light, first 3 follow-up visits): significantly better improvement than the single ALA-PDT treatment group
Inflammatory acne score, multiple versus single treatment group, all follow-up visits combined (acne vulgaris [3]; ALA plus red light, p<0.001): better improvement than the single treatment group
Duration of clinical and statistically significant clearance of inflammatory acne (acne vulgaris [3]; after a single treatment): ≥ 10 weeks
Duration of clinical and statistically significant clearance of inflammatory acne (acne vulgaris [3]; after multiple ALA-PDT treatments): at least 20 weeks
Inflammatory acne score, change from baseline (acne vulgaris [3]; multiple (4 weekly) treatments, ALA plus red light): obvious and statistically significant improvement in acne at all follow-up visits
Inflammatory acne score, change from baseline (acne vulgaris [3]; multiple treatments, ALA alone, no light): no improvement
Inflammatory acne score, change from baseline versus the other three sites (acne vulgaris [3]; multiple treatments, ALA plus red light, all visits, p<0.05): significantly greater
Inflammatory acne score, ALA alone versus untreated area (acne vulgaris [3]; multiple treatments, visit 2 (week 2) only, p=0.046): barely-significant improvement
Inflammatory acne score, change from baseline (acne vulgaris [3]; single treatment, 20% topical ALA 3 h occlusion + 150 J/cm^2 red light): improvement in acne, which was statistically significant starting 3 weeks after treatment
Inflammatory acne score, change from baseline (acne vulgaris [3]; single treatment, ALA alone, no light, all visits): slightly worse acne not significantly different than baseline
Inflammatory acne score, change from baseline versus the other three areas (acne vulgaris [3]; [7]): the differences were statistically significant at 3, 10, 20 weeks
Patients with acute eruption of inflammatory acneiform lesions ([4]; ALA-PDT sites only, both groups): 100%
Exfoliation after 3 weeks post treatment ([4]; all subjects): None of the subjects had exfoliation
Scarring ([4]; all subjects, both groups): no site in any subject had any scarring
Erythema and edema, time course ([4]; both groups, 1 hour after treatment): substantial decrease in erythema and edema by 1 hour after treatment
Subjects with burning sensation ([4]; treatment 1): 9%
Subjects with itching ([4]; treatment 1): 73%
Subjects with burning sensation ([4]; treatment 2): 67%
Subjects with itching ([4]; treatment 2): 73%
Subjects with burning sensation ([4]; treatment 3): 67%
Subjects with itching ([4]; treatment 3): 55%
Subjects with burning sensation ([4]; treatment 4): 73%
Subjects with itching ([4]; treatment 4): 55%
Subjects still showing some degree of pigmentation ([4]; multiple PDT, 20 weeks after treatment): 55%
Patients who could not continue the weekly treatment scheme and had to postpone their next treatment ([4]; multiple treatment group): Six
Acneiform lesions induced by subsequent treatments ([4]; multiple-treatment group): almost no new acneiform lesions were observed after treatment 4
Duration of transient purpura, average [4, 8]: 1 week
Subjects with superficial but very prominent exfoliation, transient purpura and partial loss of epidermis [4, 8]: 10%
Main subjective discomfort ([4]; single ALA-PDT group): itching was the main discomfort in the single ALA-PDT group, and pain was the least
Subjects in whom erythema faded away completely [4, 9]: 82%
Subjects in whom hyperpigmentation faded away completely [4, 9]: 91%
Porphyrin fluorescence of fresh-frozen sections compared with untreated skin (pilosebaceous units; after ALA application, 3 h occlusion, fluorescence microscopy): bright porphyrin fluorescence in epidermis and pilosebaceous units
PpIX fluorescence, sebocytes versus follicular epithelial cells (pilosebaceous units; after ALA application, fluorescence microscopy): brighter PpIX fluorescence in sebocytes than in the adjacent follicular epithelial cells
ALA-induced PpIX fluorescence, acne lesions versus surrounding tissue (pilosebaceous units; fluorescence photography): greater in acne lesions than surrounding tissue
Reduction of sebaceous gland size compared with untreated control area (sebaceous glands [5]; 3 weeks after multiple ALA-PDT): 55%
Reduction of sebaceous gland size compared with untreated control area (sebaceous glands [5]; 3 weeks after single ALA-PDT): 30%
Histologic finding in sebaceous gland lobules (sebaceous glands [5]; 20 weeks after multiple ALA-PDT treatments): complete destruction or 25 marked atrophy of sebaceous gland lobules
Reduction of sebaceous gland size, mean decrease (sebaceous glands [5]; immediately after PDT): 40%
Reduction of cytoplasm/nuclear cross-section area ratio in sebocyte relative to non-treatment (sebaceous glands [5]; multiple PDT): 56%
Reduction of sebaceous gland size (sebaceous glands [5]; [10]): 45%
Reduction of sebaceous gland size, range (sebaceous glands [5]; [10]): 15-80%
Reduction of sebocyte cytoplasm/nuclear area (sebaceous glands [5]; [10]): 46%
Reduction of sebocyte cytoplasm/nuclear area, range (sebaceous glands [5]; [10]): 39-53%
Reduction of cytoplasm/nuclear cross-section area ratio in sebocyte relative to non-treatment (sebaceous glands [5]; single PDT): 38%
Reduction of sebaceous gland size, mean decrease (sebaceous glands [5]; [11]): 17%
Sebocyte cytoplasm/nuclear area ratio (sebaceous glands [5]; [11]): not reduced
